# Source: patent US20160354402A1, “COMPOSITIONS” (GLOBALACORN LTD, priority 2013, published 2016)
# “Also recorded” adds a separate entry of the source.
# Legend:
# [1] = test system: CA1 pyramidal neurons in hippocampal slices; experiment: Ex vivo murine hippocampal slice model of epilepsy (picrotoxin, Mg2+-free); format: cell-based, mouse; settings: epileptic conditions: picrotoxin 100 μM, Mg2+ free perfusion solution; dose response
# Method: Slices were prepared and used as described previously (Melnik S, Wright M, Tanner J A, Tsintsadze T, Tsintsadze V, Miller A D, Lozovaya N (2006) Diadenosine polyphosphate analog controls postsynaptic excitation in CA3-CA1 synapses via a nitric oxide-dependent mechanism. J Pharmacol Exp Ther 318 (2):579-588. doi:10.1124/jpet.105.097642).
# Slices were prepared as described previously (Melnik S, Wright M, Tanner J A, Tsintsadze T, Tsintsadze V, Miller A D, Lozovaya N (2006) Diadenosine polyphosphate analog controls postsynaptic excitation in CA3-CA1 synapses via a nitric oxide-dependent mechanism. J Pharmacol Exp Ther 318 (2):579-588. doi:10.1124/jpet.105.097642). Addition of picrotoxin (100 μM) and removal of Mg^2+ in the perfusion solution induced spontaneous epileptiform events lasted for 5-10 s (FIG. 7). […] In the continued presence of picrotoxin and Mg^2+ free extracellular solution, bursting at this rate continued for at least 2 h. The effects of AppCH2ppA administration were monitored post slice administration ex vivo (FIGS. 8 and 9a).
# Tsc1+/− mice = experiment: In vivo intracortical EEG recordings of spontaneous seizures in Tsc1+/− mice (mouse model of Tuberous Sclerosis); settings: i.p. injection
# Method: This study followed the Institut National de la Santé et de la Recherche Médicale guidelines for animal care. All experiments were performed on postnatal days P9-P20 of inbred C57Bl6 strain of both sexes of Tsc1^mut/wt (Tsc1^+/−) mice issued from breeding of C57Bl6 Tsc1^wt females and Tsc1^mut/wt males Tsc1^mut/wt.
# Surgery was performed under isoflurane anesthesia. In brief, the skull of the animal was cleaned of skin and periosteum. The skull was covered by glue and dental cement except for a 4-9 mm^2 window above the somatosensory cortex from one or two hemispheres. Two plastic bars were fixed to the nasal and occipital bones of the pups head by dental cement. After surgery, animals were warmed, and left for an hour for recovery from anesthesia. During recordings, the head was fixed to the frame of the stereotaxic apparatus by attached bars; animals were surrounded by a cotton nest and heated via a thermal pad (36.6° C.-37.7° C.). […]
# Electroencephalography (EEG) recordings were performed in non-anesthetized head-restrained Tsc1^+/− and control Tsc1^wt mice. […] Recordings were analyzed off-line using Clampfit and MATLAB software. […] During EEG recordings animals were monitored visually to determine behavioral correlates of each electrographic epileptic discharge. […] Local field potentials were analyzed by the custom-written, MATLAB based programs. […]
# [2] = test system: L5 interneurons in cortical slices from Tsc1+/− mice; experiment: Ex vivo whole-cell patch-clamp recordings in cortical slices from Tsc1+/− mice; format: cell-based, mouse
# Method: Wild type and Tsc1^+/− mice (P14-P16) were anaesthetized with ether and killed by decapitation in agreement with the European Directive 86/609/EEC requirements. The brain was rapidly removed and placed in an oxygenated ice-cold saline buffer. Transverse 300 μm-thick coronal slices were cut using a vibratome (Leica VT1000S; Leica Microsystems Inc., Deerfield, Ill.) in ice-cold protecting solution oxygenated with 95% O2 and 5% of CO2. Prior to recording, slices were incubated in an artificial cerebrospinal fluid (ACSF) solution containing (in mM): 125 NaCl, 3.5 KCl, 1 CaCl2, 2 MgCl2, 1.25 NaH2PO4, 26 NaHCO3, and 10 glucose, equilibrated at pH 7.3 with 95% O2 and 5% CO2 at room temperature (22-25° C.) for at least 1 h to allow recovery.
# Slices were transferred to the recording chamber and perfused with oxygenated recording ACSF at 3 ml/min. Neurons were visualized using infrared differential interference contrast (IR-DIC) microscopy. […] It was not compensated and was monitored during each experiment. […]
# Wild type and Tsc1^+/− mice (P14-P16) were anaesthetized, their brains removed rapidly and placed in an oxygenated ice-cold saline buffer. […] The effects of AppCH2ppA administration were monitored post slice administration ex vivo. […]
Structure (SMILES),antiepileptic effect on frequency of epileptiform discharges [1],"anti-epileptic effect (spontaneous seizure activity) (Tsc1+/− mice; 30 μM in 200 μl (6 nmol; 300 nmol/kg or 0.25 mg/kg), Tsc1+/− mice)","anti-epileptic effect (spontaneous seizure activity) (Tsc1+/− mice; 100 μM in 200 μl (20 nmol; 1000 nmol/kg or 0.84 mg/kg), Tsc1+/− mice P14-P16)","spontaneous glutamatergic activity from L5 interneurons ([2]; bath administration, 10 μM, Vh=−70 mV, cortical slices from Tsc1+/− mice)","seizure like electrical impulses on individual cortical neurons ([2]; ex vivo, cortical slices, P14-P16 mice)"
Nc1ncnc2c1ncn2[C@@H]1O[C@H](COP(=O)(O)OP(=O)(O)NP(=O)(O)OP(=O)(O)OC[C@H]2O[C@@H](n3cnc4c(N)ncnc43)[C@H](O)[C@@H]2O)[C@@H](O)[C@H]1O [AppNHppA],completely inactive,–,–,–,–
Nc1ncnc2c1ncn2[C@@H]1O[C@H](COP(=O)(O)OP(=O)(O)CP(=O)(O)OP(=O)(O)OC[C@H]2O[C@@H](n3cnc4c(N)ncnc43)C(O)C2O)C(O)C1O (some centres unmarked) [AppCH2ppA],–,partial,eliminates seizures virtually completely; also recorded: essentially complete anti-epileptic effect,desensitizes glutamatergic activity relative to control,inhibits seizure like electrical impulses
